Measurements as given in PMC11874007, “Switching Roles—Exploring Concentration-Dependent Agonistic versus Antagonistic Behavior of Integrin Ligands” (Journal of Medicinal Chemistry, 2025).

Experiments:
human αvβ6-integrin = biological target: T1, human αvβ6-integrin (Homo sapiens, UniProt P06756+P18564); test: ELISA-type solid-phase binding assay: soluble αvβ6 competing for immobilized LAP (TGF-β); conditions: competitive ELISA-type assay, referenced to internal standard RTDLDSLRT
T1 construct: purchased R&D 3817-AV-050

α5β1+ OV-MZ-6 cells = test: Wound scratch cell migration assay, OV-MZ-6 cells; type: cell-based; conditions: for Effect on wound gap closure / cell migration: OV-MZ-6 cells
Procedure: (§1) As a biological readout for integrin signaling, we analyzed ligand effects on cell adhesion and migration by wound scratch assays (Figure 10A,B). […] Microscopical images were taken directly after wounding the cell monolayers and then after 9, 24, 48, and 72 h, respectively.
(§2) Figure 10 (A) Effect of integrin ligands on cancer cell migration. […] Microscopical measurements of wound gaps were taken directly after setting the wound scratch and then after 9, 24, 48, and 72 h, respectively. Wound scratch assays were repeated at least three times. The extent of wound gap closure [%]/cell coverage was calculated by a python script utilizing Canny’s Edge Detection algorithm as described under Materials and summarized in the corresponding histograms (see also Scheme S5 in the Supporting Information). (B) Adhesion of M21, OV-MZ-6, and HN cells in the presence of the respective integrin targeting ligand at low (1 nM) and high (1 μM) concentrations. […] Depicted are typical microscopical images of the respective cell monolayers.
(§3) The assays were performed according to a modified protocol as previously published.[94] Cells were cultivated on fibronectin-coated 12-well cell culture plates until cell monolayers reached an approximately 80% confluency. Then, the wound scratch was set utilizing a 200 μL pipet tip. Subsequently, fresh culture medium was added in the absence or presence of L1–L5 (concentration: 1 μM or 1 nM), and microscopical images (Zeiss, Oberkochen, Germany) were taken at two identical positions of the wound gap directly after wounding and then at 9, 24, 48, or 72 h of further cell cultivation. Each wound scratch assay was repeated three times. A custom python script was implemented to analyze wound gap closure over time: after cropping the images, we used the OpenCV[95] implementation of Canny’s Edge Detection Algorithm[96] to ensure reliable measurements even with variable lighting conditions.[97] As a first step, a 5 × 5 Gaussian filter was applied to remove background noise. The smoothened images were then filtered by a Sobel kernel[98] and the magnitude and direction of the intensity gradient of the images calculated. Then, a non-maximum suppression algorithm was applied to identify relevant pixels that presumably contribute to edges. In a final step, threshold hysteresis was utilized to distinguish true edges from variations in intensity or the remaining background noise. The resulting images were then segmented and binarized by use of a grid filter and analyzed with respect to cell-covered area relative to the start image of each series.
Scheme S5. Effect of integrin ligands on cancer cell migration (control cells to Fig. 10A in the main manuscript). a) Integrin αvβ3- OV-MZ-6 cells, α5β1- M21 cells, α5β1+ and αvβ3- and […]
mages of wound gaps were taken directly after setting the wound scratch and then after […], respectively. Wound scratch assays were repeated at least 3 times. The extent of wound gap closure [%]/cell coverage was calculated by a python script utilizing Canny’s Edge Detection algorithm11 as described in the Experimental Section and summarized in the corresponding histograms.
(1 picture or pasted object on this page, not shown here)

human αvβ3-integrin = biological target: T2, human αvβ3-integrin (Homo sapiens, UniProt P05106+P06756); test: ELISA-type solid-phase binding assay: soluble αvβ3 competing for immobilized vitronectin; conditions: competitive ELISA-type assay, referenced to internal standard cilengitide (L2)
T2 construct: purchased R&D 3050-AV-050

[1] = system: FAK, p-FAK, p44/42erk-1/2, p-p44/42erk-1/2 in α5β1+ OV-MZ-6 cells; test: Western blot of FAK and p44/42erk-1/2 expression and activation, OV-MZ-6 cells; type: cell-based; conditions: for p-FAK, transient elevation, n-fold of untreated cells: concentration not specified
Procedure: Since agonistic ligand performance requires integrin activation and signaling, by Western blot analysis, we studied whether the different ligands alter the expression levels and activation states of FAK and p44/42^(erk-1/2). For this, the respective target integrin-expressing tumor cell types were incubated with the corresponding subtype-selective ligand at a concentration of 1 μM for 24 h (Figure 8). […] Signal intensities of FAK and p44/42^(erk-1/2) expression and activation (p-FAK and p-p44/42^(erk-1/2)) on Western blots were evaluated by densitometry. Data are depicted as GAPDH-normalized fluorescence signal intensities as n-fold, by setting values obtained for the respective untreated cells to “1”. […] MAPK p44/42^(erk-1/2) expression was approximately 2.2-fold augmented, p44/42^(erk-1/2) by approximately 2.5-fold. It also raised activation of p-FAK and p-p44/42^(erk-1/2) by approximately 2.2-fold and 3.1-fold, respectively, in α5β1+ OV-MZ-6 cells. […] Additionally, it raised FAK (approximately 1.7-fold) and p-p44/42^(erk-1/2) (approximately 2.4-fold) in α5β1+ OV-MZ-6 cells.
Figure 8 Effects of ligands on cellular expression and activation of integrin-related signaling molecules FAK and p44/42^(erk-1/2). […] Signal intensities for FAK and p-FAK, respectively, were evaluated by use of the Bio-Rad Imager Gel Doc XR+ and a ChemiDoc XRS+ Systems and the software Image Lab. Shown are typical representative Western blot images and the corresponding histograms depicting GAPDH-normalized signal intensities as n-fold by setting the values obtained for untreated cells to “1” (drawn as black line). For each cell line, cutouts of identical gels are depicted.
In order to capture early and transient changes in signaling activation following ligand treatment, we next reduced the observation periods to 5, 30, or 60 min and assessed FAK expression and activation. […] Depicted are typical Western blot images and the corresponding densitometrical evaluations of GAPDH-normalized signal intensities as n-fold, by setting that of the respective untreated cell type to “1” (Figure 9). […]
The kinases (p-)p44/42^(erk-1/2) and (p-)FAK were detected as previously published.[15],[8] Briefly, cells were grown for 18 h on six-well plates in DMEM (0.45 Mio cells/well). After medium exchange, fresh medium with L1–L5 (concentration: 1.0 μM, 2 mL/well) was added, and cells were incubated for another 24 h at 37 °C. In a second series, cells were incubated with L1–L5 (1 μM or 1 nM) for 5, 30, or 60 min. Thereafter, the cellular proteins were extracted and processed by Western blotting. Proteins were visualized using the Pierce ECL chemiluminescent substrate (Thermo Fisher Scientific). Band signal intensities for (p-)p44/42^(erk-1/2) and (p-)FAK were evaluated using the Bio-Rad Imager Gel Doc XR + and ChemiDoc XRS + Systems and the software Image Lab. Differences in protein loading and blotting efficiency were normalized by reprobing the membranes with a monoclonal antibody directed to GAPDH. Signal intensities for protein bands of interest were normalized to those recorded for GAPDH. Typical Western blot images are depicted together with histograms summarizing the mean values of normalized fluorescence signal intensities as n-fold, by setting those obtained for untreated cells to “1”.

αvβ3+ M21 cells = test: Wound scratch cell migration assay, M21 cells; type: cell-based
Procedure: as §1, §2, §3

[2] = concentration not specified or both, within 60 min

| Compound | IC50 (human αvβ6-integrin) [nM] | Effect on wound gap closure / cell migration (α5β1+ OV-MZ-6 cells; 1 nM) | Effect on wound gap closure / cell migration (α5β1+ OV-MZ-6 cells; 1 μM) | IC50 (human αvβ3-integrin) [nM] | FAK, n-fold of untreated cells ([1]; 1 μM, 24 h, GAPDH-normalized) | p-p44/42erk-1/2, n-fold of untreated cells ([1]; 1 μM, 24 h, GAPDH-normalized) | FAK expression versus untreated cells [1, 2] | p-FAK, transient elevation, n-fold of untreated cells ([1]; within 60 min) | Effect on wound gap closure / cell migration (αvβ3+ M21 cells; 1 nM) | Effect on wound gap closure / cell migration (αvβ3+ M21 cells; 1 μM) | Cell coverage (wound gap closure) (αvβ3+ M21 cells; 1 μM, within 72 h) | FAK levels, n-fold of untreated cells ([1]; 1 nM, 5, 30 or 60 min) | p-FAK, highest or initial elevation, n-fold of untreated cells ([1]; 1 nM, 5, 30 or 60 min) | p-FAK, highest induction at 30 min, n-fold of untreated cells ([1]; 1 μM) | FAK expression versus untreated cells ([1]; 1 μM, 5, 30 or 60 min) | (p-)FAK and (p-)p-44/42erk-1/2 ([1]; 1 μM, 24 h) | Effect on wound gap closure (α5β1+ OV-MZ-6 cells; αvβ6- OV-MZ-6 cells, concentration not specified) |
| --- | --- | --- | --- | --- | --- | --- | --- | --- | --- | --- | --- | --- | --- | --- | --- | --- | --- |
| C#CCCC(=O)NCCCOc1ccc(C(=O)N[C@H](CC(=O)O)Cc2ccc(OCCCNc3cc(OC)ccn3)cc2)cc1 [L1, (S)-4-(4-(3-((4-Methoxypyridin-2-yl)amino)propoxy)phenyl)-3-(4-(3-(pent-4-ynamido)propoxy)benzamido)butanoic Acid] | 152 ± 60.8 | not observed | more efficient blockade of cell migration than in M21 cells | 1.1 ± 0.27 | approximately 1.7 fold | approximately 2.4 fold | transient slight increase | approximately twofold | enhanced wound gap closure | less effective than cilengitide (L2) in blocking cell migration | approximately 80% |  |  |  |  |  |  |
| C#CCCC(=O)NCCCOc1cc(C)c(C(=O)N[C@@H](CNC(=O)CNC(=O)c2cccc(NC(=N)N)c2)C(=O)O)c(C)c1 [L5, (S)-2-(2,6-Dimethyl-4-(3-(pent-4-ynamido)propoxy)benzamido)-3-(2-(3-guanidinobenzamido)acetamido)propanoic Acid] | > 1000 | did not alter their migratory capacity | blocked migration | > 1000 |  |  |  |  | did not alter their migratory capacity | no abrogation of cell migration was observed |  | approximately 1.6 fold | approximately threefold | approximately fourfold | equal to or only slightly higher than that in untreated cells | did not modulate |  |
| c(FRGDLAFp(NMe)K) [L3] |  |  |  |  |  |  | no effect | approximately 2.9 fold |  |  |  |  |  |  |  |  | delayed wound gap closure |
